Patent US6545011B2, “Substituted 4,9-dihydrocyclopenta[imn]phenanthridine-5-ones, derivatives thereof and their uses” (Guilford Pharmaceuticals Inc., priority 2000, dated 2003)
Values joined by “and” are separate entries in the source; they are usually repeats but may differ in a detail not shown here. Equal values may be shown once.

tested on: PARP; experiment: not given; conditions: read-out: IC50 for inhibiting PARP; reported by Suto et al.; cited from earlier work

Molecule | IC50 [nM]
O=C1NCCc2c(OCCCCN3CCCCC3)cccc21 [DPQ, 3,4-dihydro-5-[4-(1-piperidinyl)-butoxy]-1(2H)-isoquinolinone] | 40

tested on: MSU crystal-induced neutrophil recruitment; experiment: Gout model: MSU crystal-induced neutrophil recruitment (peritonitis); format: in vivo, mouse; conditions: 45 mg/kg i.p. 1 h prior to 3 mg MSU crystals; 6 h; group C, n=8; vehicle group B 6.30 ± 0.33
Method: Male outbread Swiss albino mice (20-22 g body weight) were purchased from Banton and Kingsman (T.O. strain; Hull, Humberside) and maintained on a standard chow pellet diet with tap water ad libitum and a 12:00 h light/dark cycle. All animals were housed for 1 week prior to experimentation to allow body weight to reach 28-30 g.
1,11b-dihydrobenzopyrano[4,3,2-de ]isoquinolin-1-one was dissolved in 100% DMSO at room temperature at a concentration of 45 mg in 2 ml. The compound was then injected into the peritoneal cavity, so as each mouse received a single dose corresponding to 45 mg/2 ml/kg (e.g. 60 μl for a mouse of 30 g). Control mice received DMSO at 2 ml/kg i.p. A third group of mice which were left untreated were added to control for potential effects of the vehicle. The study involved therefore, the following three groups: group A, untreated mice, n=6, group B, DMSO-treated mice, n=8, and group C, mice treated with 1,11b-dihydrobenzopyrano[4,3,2-de ]isoquinolin-1-one, n=8.
MSU crystal-induced neutrophil recruitment was tested as follows. In all cases, mice were treated 1 h after the treatment noted above, with MSU crystals. A homogenous suspension of MSU crystals was obtained by a 30 min rotation. Peritonitis was induced by injection of 3 mg MSU crystals in 0.5 ml PBS (0.1 M, pH 7.4), and the recruitment of neutrophils into the cavity evaluated at the 6 h time point (Getting, et al., 1997, J. Pharmacol. Exp. Ther. 283: 123-130). Animals were then euthanised by CO2 exposure and the peritoneal cavity washed with 3 ml of PBS supplemented with 3 mM EDTA and 25 U/ml heparin.
An aliquot (100 μl) of the lavage fluid was then diluted 1:10 in Turk's solution (0.01% crystal violet in 3% acetic acid). The samples were then vortexed and 10 μl of the stained cell solution were placed in a Neubauer haematocymometer and neutrophils numbers counted using a light microscope (Olympus B061). […]
Data are shown for single mice, and also shown as mean±S.E. of (n) mice per group. Statistical differences were determined by ANOVA, plus Bonferroni test. […]

Molecule | Neutrophils (mean ± S.E.)
O=C1N=Cc2cccc3c2C1c1ccccc1O3 (centres unmarked) [1,11b-dihydrobenzopyrano[4,3,2-de]isoquinolin-1-one] | 2.85 ± 0.34 (8)* 10^6 per mouse

same assay, conditions: 45 mg/kg i.p. 1 h prior to 3 mg MSU crystals; peritoneal lavage at 6 h; group C, one value per mouse

Molecule | Neutrophil Numbers (single mice)
O=C1N=Cc2cccc3c2C1c1ccccc1O3 (centres unmarked) [1,11b-dihydrobenzopyrano[4,3,2-de]isoquinolin-1-one] | 2.4 10^6 per mouse (2×) and 3.0 10^6 per mouse (2×) and 2.7 10^6 per mouse and 2.1 10^6 per mouse (2×) and 5.1 10^6 per mouse

same assay, conditions: 45 mg/kg i.p.; 6 h after MSU crystals

Molecule | inhibition of cell influx vs. the vehicle group [%]
O=C1N=Cc2cccc3c2C1c1ccccc1O3 (centres unmarked) [1,11b-dihydrobenzopyrano[4,3,2-de]isoquinolin-1-one] | 55

tested on: ischemia and reperfusion of the heart; experiment: not given; conditions: rabbit; single injection 1 mg/kg; cited from earlier work

Molecule | reduction in infarct size
Oc1cccc2c(O)nccc12 [1,5-dihydroxyisoquinoline] | 38-48%

same assay, conditions: rabbit; single injection 10 mg/kg, one minute before occlusion or before reperfusion; cited from earlier work

Molecule | reduction in infarct size in the heart
NC(=O)c1cccc(N)c1 [3-amino-benzamide] | 32-42%

target: T1, purified recombinant human PARP (Homo sapiens, UniProt P09874); experiment: PARP enzyme assay (IC50), [3H]NAD incorporation; format: biochemical; conditions: approximate values, read-out: Inhibition IC50
T1 construct: purchased Trevigan (Gaithersburg, Md.)
Method: The reaction is initiated by incubating the mixture at 25° C. After 15 minutes of incubation, the reaction is terminated by adding 500 microliters of ice cold 20% (w/v) trichloroacetic acid. The precipitate formed is transferred onto a glass fiber filter (Packard Unifilter-GF/B) and washed three times with ethanol. After the filter is dried, the radioactivity is determined by scintillation counting.
Using the PARP assay described above, approximate IC50 (μM) values were obtained as shown in the following Table III, which also include specific embodiments of the compounds of the present invention: […]

T1 sequence (P09874 whole entry): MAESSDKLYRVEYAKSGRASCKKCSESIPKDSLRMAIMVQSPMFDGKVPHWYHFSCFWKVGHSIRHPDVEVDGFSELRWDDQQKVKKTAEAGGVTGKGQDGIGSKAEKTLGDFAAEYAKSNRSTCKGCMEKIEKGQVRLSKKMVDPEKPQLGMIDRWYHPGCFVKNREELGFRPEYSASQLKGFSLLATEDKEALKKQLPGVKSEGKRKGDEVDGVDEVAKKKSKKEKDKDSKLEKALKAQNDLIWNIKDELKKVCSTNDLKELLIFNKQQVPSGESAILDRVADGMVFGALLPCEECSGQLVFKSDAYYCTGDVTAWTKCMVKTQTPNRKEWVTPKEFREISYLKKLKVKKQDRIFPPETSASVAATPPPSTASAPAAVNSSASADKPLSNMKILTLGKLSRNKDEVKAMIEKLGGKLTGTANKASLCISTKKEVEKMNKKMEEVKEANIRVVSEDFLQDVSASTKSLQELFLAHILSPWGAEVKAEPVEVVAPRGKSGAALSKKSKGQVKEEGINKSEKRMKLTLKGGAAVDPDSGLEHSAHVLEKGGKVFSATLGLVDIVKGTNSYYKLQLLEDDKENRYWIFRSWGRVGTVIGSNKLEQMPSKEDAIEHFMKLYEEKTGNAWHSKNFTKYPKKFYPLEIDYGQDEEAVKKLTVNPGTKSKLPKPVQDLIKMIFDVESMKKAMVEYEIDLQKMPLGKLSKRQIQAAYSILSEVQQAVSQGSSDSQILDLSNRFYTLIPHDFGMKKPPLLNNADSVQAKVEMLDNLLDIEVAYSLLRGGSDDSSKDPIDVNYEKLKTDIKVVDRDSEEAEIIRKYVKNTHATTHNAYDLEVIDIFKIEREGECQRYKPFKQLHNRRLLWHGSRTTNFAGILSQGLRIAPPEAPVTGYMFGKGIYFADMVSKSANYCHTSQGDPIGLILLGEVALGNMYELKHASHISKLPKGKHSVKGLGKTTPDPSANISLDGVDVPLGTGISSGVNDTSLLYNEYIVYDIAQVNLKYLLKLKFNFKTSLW

IC50 [nM] | Molecule
100 | O=c1[nH]c2cccc3c2c2c(cccc12)C3 [Compound 1, 5,9-dihydro-4[H]cyclopenta[lmn]phenathridin-5-one]
110 | O=c1[nH]c2ccc(S(=O)(=O)O)c3c2c2c(cccc12)C3 [Compound 2, 5,9-Dihydro-5-oxo-4[H]cyclopenta[lmn]phenathridine-1-sulfonic acid]
111 | O=c1[nH]c2ccc([N+](=O)[O-])c3c2c2c(cccc12)C3 [Compound 4, 5,9-dihydro-1-nitro-4[H]cyclopenta[lmn]phenathridin-5-one]
60 | Nc1ccc2[nH]c(=O)c3cccc4c3c2c1C4 [Compound 5, 5,9-dihydro-1-amino-4[H]cyclopenta[lmn]phenathridin-5-one]
380 | O=c1[nH]c2ccc(S(=O)(=O)N3CCN(c4ccccn4)CC3)c3c2c2c(cccc12)C3 [Compound 6]
70 | O=c1[nH]c2ccc(S(=O)(=O)NCCN3CCOCC3)c3c2c2c(cccc12)C3 [Compound 8, 5,9-Dihydro-N-[2-(4-morpholinyl)ethyl]-1-oxo-[H]cyclopenta[lmn]phenathridine-1-sulfonamide]
130 | CN1CCN(S(=O)(=O)c2ccc3[nH]c(=O)c4cccc5c4c3c2C5)CC1 [Compound 9, 5,9-Dihydro-1-[(4-methyl-1-piperazinyl)sulfonyl]-4[H]cyclopenta[lmn]phenathridin-5-one]
70 | O=c1[nH]c2ccc(S(=O)(=O)NCCc3ccncc3)c3c2c2c(cccc12)C3 [Compound 10]
50 | O=c1[nH]c2ccc(S(=O)(=O)NCCN3CCCCC3)c3c2c2c(cccc12)C3 [Compound 11, 5,9-Dihydro-5-oxo-N-[2-(1-piperidinyl)ethyl]-4[H]cyclopenta[lmn]phenathridine-1-sulfonamide]
40 | O=c1[nH]c2ccc(S(=O)(=O)N3CCOCC3)c3c2c2c(cccc12)C3 [Compound 12, 5,9-Dihydro-1-(4-morpholinylsulfonyl)-4[H]cyclopenta[lmn]phenathridin-5-one]
50 | CC(=O)Nc1ccc2[nH]c(=O)c3cccc4c3c2c1C4 [Compound 13, 5,9-Dihydro-5-oxo-4[H]cyclopenta[mn]phenathridin-1-yl acetamide]
80 | O=C(Nc1ccc2[nH]c(=O)c3cccc4c3c2c1C4)c1cccc(F)c1 [Compound 14, N-(5,9-Dihydro-5-oxo-4[H]cyclopenta[lmn]phenathridin-1-yl)-3-fluorbenzamide]
70 | O=c1[nH]c2cccc3c(=O)c4cccc1c4c23 [Compound 16, 9-oxo-5,9-dihydro-4[H]cyclopenta[lmn]phenathridin-5-one]
30 | O=c1[nH]c2cc(F)cc3c(=O)c4cc(F)cc1c4c23 [Compound 17]
120 | O=c1[nH]c2cccc3c2c2c(cccc12)C3O (centres unmarked) [Compound 18]
100 | O=c1[nH]c2cc(F)cc3c2c2c(cc(F)cc12)C3O (centres unmarked) [Compound 19]
810 | CC(=O)OC1c2cccc3[nH]c(=O)c4cccc1c4c23 (centres unmarked) [Compound 20]
360 | CC(=O)OC1c2cc(F)cc3[nH]c(=O)c4cc(F)cc1c4c23 (centres unmarked) [Compound 21, 5,9-Dihydro-2,7-difluoro-5-oxo-4[H]cyclopenta[lmn]phenathridin-9-yl acetate]
20 | O=c1[nH]c2cc(Cl)cc3[nH]c4cc(Cl)cc1c4c23 [Compound 22, 2,7,-Dichloro-5,9-dihydro-4[H]pyrrol[2,3,4,5-lmn]phenathridin-5-one]
70 | N-(5,9-Dihydro-5-oxo-4[H]cyclopenta[lmn]phenathridin-1-yl)-4-fluorbenzamide [Compound 15]
